# Reference: patent US20040143461A1, “Generating, viewing, interpreting, and utilizing a quantitative database of metabolites” (Lipomics Technologies, Inc., priority 2001, published 2004)
# Read-outs that look alike come from different tables or passages of the source.
# Experiments:
# [1] = tested on: plasma lipids; assay: Lipomic assessment of CL316,243-treated NZO mice (trial 2), targeting graph versus rosiglitazone; type: in vivo, mouse
# Source text: In a targeting display, quantitative metabolite data is compared from two samples that have been subjected to different treatments, for instance treatment with two different drugs or a drug and a test compound. The percentage or absolute changes (versus the standard sample) in the measured metabolites are plotted against each other on a Cartesian graph. This visual system facilitates the comparison of the global and individual metabolic effects of the two conditions being examined. If the two treatments (e.g., two drug treatments) affect the biological system in metabolically similar ways, the data points will fall along a line with a slope of 1, running through the origin (from the lower left to the upper right quadrant, in other words). Outlier data points, where one treatment or the other has a different effect on a metabolite, will lie in the upper left or lower right quadrants, and are therefore easily identified. […] The further off the “equivalent” slope a data point is, the greater the magnitude of differential effect that is being illustrated.
# The metabolites found in the lower left and the upper right quadrants of the scatter plot (especially those where the X and Y values are similar) represent those likely affected by similar molecular mechanisms. […]
# [2] = tested on: liver lipid metabolome; conditions: treated mice
# Experimental: (§1) Mouse tissue and plasma samples were a generous donation to Lipomics Technologies from Dr. Edward Leiter of the Jackson Laboratory (Bar Harbor, Me.). Samples included the plasma, heart, liver and inguinal adipose of mice treated with pharmaceuticals or their corresponding controls.
# (§2) In both studies, five treated and five control mice were used. Following the treatments and the killing of the mice, tissues and plasma were taken, chilled to −80° C. and shipped to the analysis laboratory at Lipomics Technologies in a frozen state.
# (§3) For the analysis of liver and heart tissues, 25 mg of tissue were placed in a ground glass homogenizer and internal standards were added. The internal standards for use in the analyses of these tissues may take many forms, but in this instance consisted of: 4.75 μg of N-pentadecenoyl-D-erythro-sphingosylphorylcholine; 74.78 μg of 1,2 diheptadecanoylphosphatidylcholine; 33.57 μg of 1,2-diheptadecenoylphosphatidylserine (for phosphatidylserine); 24.13 μg of 1,2-diheptadecenoylphosphatidylethanolamine; 13.38 μg of 1,1′,2,2′-tetraheptadecaenoyl cardiolipin (for cardiolipin); 1.12 μg of pentadecaenoic acid; 27.82 μg of triheptadecaenoic acid; 1.56 μg of cholesteryl heptadecanoate; and 27.70 μg of stigmasterol.
# (§4) The solution mixture consisting of sample, fluid extractant, and internal standards was homogenized by twelve strokes with a ground-glass homogenizer. Following homogenization, 1.8 ml of 0.01 M potassium chloride was added, and the solution was vigorously mixed. The organic fraction containing the lipids and the internal standards was separated from the polar fraction of the mixture by centrifugation. The lipid extract was removed from the mixture and concentrated under a stream of nitrogen in preparation for lipid class separation.
# (§5) The separation of lipid classes was performed by preparative thin-layer chromatography (TLC), essentially as previously described (Watkins et al., Lipids 36:247-254, 2001). To remove any residual metal or other damaging contaminants on the TLC plates, each plate was washed prior to use. Washing the plates is a three-step process that involves impregnating each plate with ethylenediamine tetraacetic acid (EDTA) and rinsing the plates once with methanol and once with chloroform. Each plate is first impregnated with 1 mM EDTA, pH 5.5, by ascending development using the method of Ruiz (J. Lipid Res. 38, 1482-1489, 1997). After each plate was completely developed, it was dried in air overnight. Once dry, each plate was developed in methanol, dried, and developed in chloroform in the same direction as the development with EDTA. The washed plates were then dried in air. Just prior to use, each plate was activated by heating to 110° C. for 10 minutes.
# (§6) To prepare the TLC chamber for chromatography, Whatman (Clifton, N.J.) filter paper was cut into 20×80-cm strips and wrapped around the inside wall of a 30×60×10-cm glass development chamber. One hundred milliliters of the appropriate mobile phase was added to the chamber, and the chambers were sealed and allowed to equilibrate. Chambers were considered equilibrated when the solvent front had completely ascended the filter paper. The mobile phase employed for the separation of phospholipid classes (lyso-phospholipids, sphingomyelin, phosphatidylcholine, phosphatidylserine, phosphatidylethanolamine and cardiolipin) was a modification of the solvent system described by Holub and Skeaf (“Nutritional regulation of cellular phosphatidylinositol,” in Meth. Enzym., ed. Conn (Academic Press, Inc., Orlando), pp. 234-243, 1987) consisting of chloroform/methanol/acetic acid/water (100:67:7:4, by vol).
# (§7) For the separation of neutral lipid classes (free fatty acids, free sterols, triacylglycerides and cholesterol esters), a solvent system consisting of petroleum ether/diethyl ether/acetic acid (80:20:1, by vol) was used (Mangold, Thin Layer Chromatography— A Laboratory Handbook (Springer-Verlag, New York), 1969).
# [3] = tested on: heart lipid metabolome
# Experimental: as §1, §2, §3, §4, §5, §6, §7
# [4] = humans; cited from earlier work
# [5] = tested on: inguinal adipose lipid metabolome
# Experimental: as §1, §2
# The lipids from plasma and tissues were extracted in the presence of authentic internal standards by the method of Folch et al. (J. Biol. Chem. 226, 497-509, 1957) by homogenization in a fluid extractant consisting of chloroform:methanol (2:1 vol:vol). Plasma (200 μl), or 10 mg inguinal adipose tissue was used for each analysis. For each sample, an appropriate mass of internal standard was added. The internal standard compounds chosen may take many forms, but in one specific example the internal standards added to each plasma sample were: 1.75 μg of heptadecanoic 1-heptadecanoyl-2-lyso-phosphatidycholine (for lysophospholipids), 2.25 micrograms of N-pentadecenoyl-D-erythro-sphingosylphorylcholine (for sphingomyelin), 39.93 micrograms of 1,2 diheptadecanoylphosphatidylcholine (for phosphatidylcholine), 0.93 micrograms of 1,2-diheptadecenoylphosphatidylethanolamine (for phosphatidylethanolamine), 2.09 micrograms of pentadecaenoic acid (for free fatty acids), 32.93 micrograms of triheptadecaenoic acid (for triacylglycerides), 27.27 micrograms of cholesteryl heptadecanoate (for cholesterol esters) and 38.03 micrograms of stigmasterol (for free sterols).
# as §4, §5
# To prepare the TLC chamber for chromatography, Whatman (Clifton, N.J.) filter paper was cut into 20×80-cm strips and wrapped around the inside wall of a 30×60×10-cm glass development chamber. One hundred milliliters of the appropriate mobile phase was added to the chamber, and the chambers were sealed and allowed to equilibrate. Chambers were considered equilibrated when the solvent front had completely ascended the filter paper.
# [6] = Body weight, glycemia, insulin and hepatic steatosis in rosiglitazone-treated (NZO×NON)F1 male mice; type: in vivo, mouse
# [7] = amount in parentheses after the % greater
# [8] = treated vs control mice, FIG. 5
structure (smiles),measurement,setting,value
"C[C@H](Cc1ccc2c(c1)OC(C(=O)[O-])(C(=O)[O-])O2)NC[C@H](O)c1cccc(Cl)c1.[Na+].[Na+] [CL316,243]",similarity of effect on plasma lipids to rosiglitazone,"[1]; targeting graph FIG. 6, NZO mice, 0.001% in chow, four weeks",largely validated
same,increase in the de novo synthesis of fatty acids,"[1]; targeting graph FIG. 6, upper left quadrant metabolites (16:1n7, 18:1n7, 20:3n9)",not induced
CN(CCOc1ccc(CC2SC(=O)NC2=O)cc1)c1ccccn1 (stereo not drawn) [rosiglitazone],liver sphingomyelin concentration,"[2]; untreated 1,890 nmol/g","1,180 nmol/g"
same,Total hepatic triacylglycerides,"[2]; untreated 81,300 nmol/g","150,400 nmol/g"
same,"14:0 fatty acid associated with heart sphingomyelin, more than the control sample","[3]; FIG. 5 heat map, test sample vs control sample",80%
same,Docosahexaenoic acid (22:6n3) in heart cardiolipin,"[3]; treated mice, control 2,200 nmol/g",950 nmol/g
same,linoleic acid (18:2n6) in heart cardiolipin,"[3]; treated mice, control 4,550 nmol/g","8,850 nmol/g"
same,mean cardiolipin content of hearts,"[3]; treated mice, untreated 2,500 nmol/g","3,000 nmol/g"
same,average concentration of total free fatty acids in the heart,"[3]; treated mice, untreated 5,100 nmol/g","2,500 nmol/g"
same,"heart free fatty acids of the saturated n-3, n-6, and n-9 families, lower than in untreated mice","[3]; treated vs untreated mice, FIG. 7",approximately 50%
same,weight gain,[4],often accompanied by weight gain
same,"docosahexaenoic acid in inguinal fat triacylglycerides, greater concentration than control",[5]; [7],"7,000 nmol/g"
same,"eicosapentaenoic acid in inguinal fat triacylglycerides, greater concentration than control",[5]; [7],"4,100 nmol/g"
same,"a-linolenic acid in inguinal fat triacylglycerides, more than control",[5]; amount in parentheses after the % more,"24,300 nmol/g"
same,concentration of total n-3 fatty acids in the inguinal fat triacylglycerides,[5]; treated mice,"71,260 nmol/g"
same,inguinal fat triacylglyceride content,[5]; treated mice,"9,628 μmol/g"
same,inguinal fat free fatty acids,"[5]; treated mice, controls 9,900 nmol/g","13,370 nmol/g"
same,concentration of n-7 fatty acids in inguinal fat triacylglycerides,"[5]; treated mice, untreated 204 μmol/g",303 µmol/g
same,"inguinal fat free fatty acids, more than controls",[5]; treated vs control mice,35%
same,"inguinal fat triacylglyceride content, lower than controls",[5]; treated vs control mice,5.7%
same,"a-linolenic acid in inguinal fat triacylglycerides, more than control",[5]; [8],84%
same,"docosahexaenoic acid in inguinal fat triacylglycerides, greater concentration than control",[5]; [8],612%
same,"eicosapentaenoic acid in inguinal fat triacylglycerides, greater concentration than control",[5]; [8],522%
same,"total concentration of n-6 fatty acids in inguinal fat, higher than untreated",[5]; treated vs untreated mice,less than 3%
same,"total n-3 fatty acids in inguinal fat triacylglycerides, greater than in untreated mice",[5]; treated vs untreated mice,120%
same,body weight,[6]; markedly-obese (NZO×NON)F1 male mice,increase in body weight
same,hepatic steatosis,[6]; treated animals,severe hepatic steatosis
